{"source": "patent US20060030616A1", "about": "“Anhydride modified cantharidin analogues useful in the treatment of cancer” (priority 1998, published 2006)", "key": {"HCT116 cells": {"test_system": "HCT116 cells", "experiment": "Cell cycle analysis, flow cytometry of propidium iodide stained cells", "type": "cell-based, human", "description": "(§1) The cells are fixed in 70% ethanol and stored at −20° C. until analysis is performed (1-2 weeks). After fixing, the cells are pelleted and incubated in PBS containing propidium iodide ([…]) and RNase A (200 mg/ml) for at least 30 min at room temperature. The samples (2×10^4 events) are analysed using a Becton Dickson FACScan, fluorescence is collected in fluorescence detector 2 (FL2), filter 575/30 nm band pass. Cell cycle distribution is assessed using Cell Quest software (Becton Dickson).\n(§2) The ability of the protein phosphatase inhibitors to abrogate the G1 or G2 checkpoint of the cell cycle may be determined by cell cycle analysis using flow cytometry. Briefly, asynchronous cell cultures are harvested 18 h after 6 Gy irradiation and/or 12 h incubation with the protein phosphatase inhibitor. Depending upon the p53 status of the cell line, radiation treatment alone will induce arrest in either G1 and/or G2 phase of the cell cycle.\n(§3) Data shown in Table 2 and FIG. 4 show the cell cycle response of L1210, HL60, HT29 and HCT116 cells to cantharidin and the new cantharidin analogues MK-2 and MK-4 after 12 h exposure. In summary, cantharidin and MK-2 produced a similar response and induced G2 arrest in all four cell lines tested. […] HL60 and HCT116 cells. […] The magnitude of the cell cycle arrest induced by these drugs directly correlated with their cytotoxicity in the respective cell lines. […] The cytotoxicity of the […]"}, "HT29 cells": {"test_system": "HT29 cells", "experiment": "Cell cycle analysis, flow cytometry of propidium iodide stained cells", "type": "cell-based, human", "details": "12 h", "description": "as §1, §2, §3"}, "HL60 cells": {"test_system": "HL60 cells", "experiment": "Cell cycle analysis, flow cytometry of propidium iodide stained cells", "type": "cell-based, human", "description": "as §1, §2, §3"}, "L1210 cells": {"test_system": "L1210 cells", "experiment": "Checkpoint abrogation after 6 Gy radiation, flow cytometry", "type": "cell-based, murine", "details": "12 h after drug", "description": "as §1, §2\nIf the protein phosphatase inhibitor abrogates the G2 checkpoint then the cells will not arrest in the G2 phase of the cell cycle and the cells will continue through the cell cycle and accumulate in the G1 phase of the cell cycle only. Similarily if the protein phosphatase inhibitors abrogates the G1 checkpoint then the cells will not arrest in the G1 phase of the cell cycle and accumulate in the G2 phase of the cell cycle only. Cell cycle analysis using propidium iodide labelling of DNA has been used extensively in our laboratory to assess the effect of specific anticancer agents that induce S-phase cell cycle arrest and apoptotic cell death (Sakoff, Ackland and Stewart, 1998). Experiments were performed on a Becton Dickinson FACScan and using Cell Quest software.\nThe cells were treated with 6 Gy of radiation and then treated with cantharidin 6 h later. The ability to abrogate cell cycle arrest was assessed is 12 h after the addition of the drugs."}}}
{"compound": "O=C1OC(O)C2C3CCC(O3)C12", "note": "(centres unmarked) [MK-4]", "values": [{"measurement": "Cell Cycle Distribution, G1", "setting": "HCT116 cells; HCT116, 50 μM, 12 h", "value": "43.9 percentage of total"}, {"measurement": "Cell Cycle Distribution, G2 + M", "setting": "HCT116 cells; HCT116, 50 μM, 12 h", "value": "40.7 percentage of total"}, {"measurement": "Cell Cycle Distribution, S", "setting": "HCT116 cells; HCT116, 50 μM, 12 h", "value": "11.4 percentage of total"}, {"measurement": "Cell Cycle Distribution, sub G1", "setting": "HCT116 cells; HCT116, 50 μM, 12 h", "value": "4.5 percentage of total"}, {"measurement": "Cell Cycle Distribution, G1", "setting": "HCT116 cells; HCT116, 100 μM, 12 h", "value": "41.4 percentage of total"}, {"measurement": "Cell Cycle Distribution, G2 + M", "setting": "HCT116 cells; HCT116, 100 μM, 12 h", "value": "44.1 percentage of total"}, {"measurement": "Cell Cycle Distribution, S", "setting": "HCT116 cells; HCT116, 100 μM, 12 h", "value": "13.6 percentage of total"}, {"measurement": "Cell Cycle Distribution, sub G1", "setting": "HCT116 cells; HCT116, 100 μM, 12 h", "value": "2.0 percentage of total"}, {"measurement": "Cell Cycle Distribution, G1", "setting": "HCT116 cells; HCT116, 250 μM, 12 h", "value": "36.2 percentage of total"}, {"measurement": "Cell Cycle Distribution, G2 + M", "setting": "HCT116 cells; HCT116, 250 μM, 12 h", "value": "46.9 percentage of total"}, {"measurement": "Cell Cycle Distribution, S", "setting": "HCT116 cells; HCT116, 250 μM, 12 h", "value": "14.1 percentage of total"}, {"measurement": "Cell Cycle Distribution, sub G1", "setting": "HCT116 cells; HCT116, 250 μM, 12 h", "value": "3.9 percentage of total"}, {"measurement": "Cell Cycle Distribution, G1", "setting": "HCT116 cells; HCT116, 500 μM, 12 h", "value": "29.0 percentage of total"}, {"measurement": "Cell Cycle Distribution, G2 + M", "setting": "HCT116 cells; HCT116, 500 μM, 12 h", "value": "46.5 percentage of total"}, {"measurement": "Cell Cycle Distribution, S", "setting": "HCT116 cells; HCT116, 500 μM, 12 h", "value": "15.7 percentage of total"}, {"measurement": "Cell Cycle Distribution, sub G1", "setting": "HCT116 cells; HCT116, 500 μM, 12 h", "value": "9.6 percentage of total"}, {"measurement": "Cell cycle remark", "setting": "HCT116 cells; HCT116, 500 μM, 12 h", "value": "G2 arrest"}, {"measurement": "Cell cycle response", "setting": "HCT116 cells; HCT116, 12 h exposure", "value": "G2 arrest"}, {"measurement": "Cell Cycle Distribution, G1", "setting": "HT29 cells; HT29, 50 μM", "value": "51.4 percentage of total"}, {"measurement": "Cell Cycle Distribution, G2 + M", "setting": "HT29 cells; HT29, 50 μM", "value": "31.6 percentage of total"}, {"measurement": "Cell Cycle Distribution, S", "setting": "HT29 cells; HT29, 50 μM", "value": "12.3 percentage of total"}, {"measurement": "Cell Cycle Distribution, sub G1", "setting": "HT29 cells; HT29, 50 μM", "value": "4.7 percentage of total"}, {"measurement": "Cell Cycle Distribution, G1", "setting": "HT29 cells; HT29, 100 μM", "value": "52.3 percentage of total"}, {"measurement": "Cell Cycle Distribution, G2 + M", "setting": "HT29 cells; HT29, 100 μM", "value": "29.4 percentage of total"}, {"measurement": "Cell Cycle Distribution, S", "setting": "HT29 cells; HT29, 100 μM", "value": "12.5 percentage of total"}, {"measurement": "Cell Cycle Distribution, sub G1", "setting": "HT29 cells; HT29, 100 μM", "value": "6.0 percentage of total"}, {"measurement": "Cell Cycle Distribution, G1", "setting": "HT29 cells; HT29, 250 μM", "value": "53.2 percentage of total"}, {"measurement": "Cell Cycle Distribution, G2 + M", "setting": "HT29 cells; HT29, 250 μM", "value": "27.6 percentage of total"}, {"measurement": "Cell Cycle Distribution, S", "setting": "HT29 cells; HT29, 250 μM", "value": "11.9 percentage of total"}, {"measurement": "Cell Cycle Distribution, sub G1", "setting": "HT29 cells; HT29, 250 μM", "value": "7.0 percentage of total"}, {"measurement": "Cell Cycle Distribution, G1", "setting": "HT29 cells; HT29, 500 μM", "value": "53.7 percentage of total"}, {"measurement": "Cell Cycle Distribution, G2 + M", "setting": "HT29 cells; HT29, 500 μM", "value": "29.1 percentage of total"}, {"measurement": "Cell Cycle Distribution, S", "setting": "HT29 cells; HT29, 500 μM", "value": "14.1 percentage of total"}, {"measurement": "Cell Cycle Distribution, sub G1", "setting": "HT29 cells; HT29, 500 μM", "value": "3.4 percentage of total"}, {"measurement": "Cell cycle remark", "setting": "HT29 cells; HT29, 500 μM", "value": "G1 arrest"}, {"measurement": "Cell Cycle Distribution, G1", "setting": "HL60 cells; HL60, 50 μM, 12 h", "value": "44.7 percentage of total"}, {"measurement": "Cell Cycle Distribution, G2 + M", "setting": "HL60 cells; HL60, 50 μM, 12 h", "value": "32.3 percentage of total"}, {"measurement": "Cell Cycle Distribution, S", "setting": "HL60 cells; HL60, 50 μM, 12 h", "value": "22.3 percentage of total"}, {"measurement": "Cell Cycle Distribution, sub G1", "setting": "HL60 cells; HL60, 50 μM, 12 h", "value": "1.9 percentage of total"}, {"measurement": "Cell Cycle Distribution, G1", "setting": "HL60 cells; HL60, 100 μM, 12 h", "value": "45.3 percentage of total"}, {"measurement": "Cell Cycle Distribution, G2 + M", "setting": "HL60 cells; HL60, 100 μM, 12 h", "value": "30.6 percentage of total"}, {"measurement": "Cell Cycle Distribution, S", "setting": "HL60 cells; HL60, 100 μM, 12 h", "value": "22.6 percentage of total"}, {"measurement": "Cell Cycle Distribution, sub G1", "setting": "HL60 cells; HL60, 100 μM, 12 h", "value": "2.5 percentage of total"}, {"measurement": "Cell Cycle Distribution, G1", "setting": "HL60 cells; HL60, 250 μM, 12 h", "value": "40.0 percentage of total"}, {"measurement": "Cell Cycle Distribution, G2 + M", "setting": "HL60 cells; HL60, 250 μM, 12 h", "value": "32.0 percentage of total"}, {"measurement": "Cell Cycle Distribution, S", "setting": "HL60 cells; HL60, 250 μM, 12 h", "value": "23.0 percentage of total"}, {"measurement": "Cell Cycle Distribution, sub G1", "setting": "HL60 cells; HL60, 250 μM, 12 h", "value": "6.0 percentage of total"}, {"measurement": "Cell Cycle Distribution, G1", "setting": "HL60 cells; HL60, 500 μM, 12 h", "value": "27.8 percentage of total"}, {"measurement": "Cell Cycle Distribution, G2 + M", "setting": "HL60 cells; HL60, 500 μM, 12 h", "value": "44.4 percentage of total"}, {"measurement": "Cell Cycle Distribution, S", "setting": "HL60 cells; HL60, 500 μM, 12 h", "value": "22.8 percentage of total"}, {"measurement": "Cell Cycle Distribution, sub G1", "setting": "HL60 cells; HL60, 500 μM, 12 h", "value": "6.1 percentage of total"}, {"measurement": "Cell cycle remark", "setting": "HL60 cells; HL60, 500 μM, 12 h", "value": "G2 arrest"}, {"measurement": "Cell cycle response", "setting": "HL60 cells; HL60, 12 h exposure", "value": "G2 arrest"}, {"measurement": "Cell Cycle Distribution, G1", "setting": "L1210 cells; L1210, 50 μM, 18 h after 6Gy", "value": "21.2 percentage of total"}, {"measurement": "Cell Cycle Distribution, G2 + M", "setting": "L1210 cells; L1210, 50 μM, 18 h after 6Gy", "value": "50.3 percentage of total"}, {"measurement": "Cell Cycle Distribution, S", "setting": "L1210 cells; L1210, 50 μM, 18 h after 6Gy", "value": "28.5 percentage of total"}, {"measurement": "Cell Cycle Distribution, sub G1", "setting": "L1210 cells; L1210, 50 μM, 18 h after 6Gy", "value": "1.8 percentage of total"}, {"measurement": "Cell Cycle Distribution, G1", "setting": "L1210 cells; L1210, 100 μM, 18 h after 6Gy", "value": "22.0 percentage of total"}, {"measurement": "Cell Cycle Distribution, G2 + M", "setting": "L1210 cells; L1210, 100 μM, 18 h after 6Gy", "value": "49.7 percentage of total"}, {"measurement": "Cell Cycle Distribution, S", "setting": "L1210 cells; L1210, 100 μM, 18 h after 6Gy", "value": "27.4 percentage of total"}, {"measurement": "Cell Cycle Distribution, sub G1", "setting": "L1210 cells; L1210, 100 μM, 18 h after 6Gy", "value": "2.4 percentage of total"}, {"measurement": "Cell Cycle Distribution, G1", "setting": "L1210 cells; L1210, 250 μM, 18 h after 6Gy", "value": "21.2 percentage of total"}, {"measurement": "Cell Cycle Distribution, G2 + M", "setting": "L1210 cells; L1210, 250 μM, 18 h after 6Gy", "value": "52.7 percentage of total"}, {"measurement": "Cell Cycle Distribution, S", "setting": "L1210 cells; L1210, 250 μM, 18 h after 6Gy", "value": "24.6 percentage of total"}, {"measurement": "Cell Cycle Distribution, sub G1", "setting": "L1210 cells; L1210, 250 μM, 18 h after 6Gy", "value": "3.1 percentage of total"}, {"measurement": "Cell Cycle Distribution, G1", "setting": "L1210 cells; L1210, 500 μM, 18 h after 6Gy", "value": "18.2 percentage of total"}, {"measurement": "Cell Cycle Distribution, G2 + M", "setting": "L1210 cells; L1210, 500 μM, 18 h after 6Gy", "value": "61.8 percentage of total"}, {"measurement": "Cell Cycle Distribution, S", "setting": "L1210 cells; L1210, 500 μM, 18 h after 6Gy", "value": "16.0 percentage of total"}, {"measurement": "Cell Cycle Distribution, sub G1", "setting": "L1210 cells; L1210, 500 μM, 18 h after 6Gy", "value": "5.0 percentage of total"}, {"measurement": "Checkpoint remark", "setting": "L1210 cells; L1210, 500 μM, 18 h after 6Gy", "value": "G1 abrogation"}, {"measurement": "Checkpoint abrogation", "setting": "L1210 cells; L1210, 6 Gy", "value": "abrogated G1 arrest"}]}
